Results taken from patent US11220504B2, “Pyrrolo[3,2-d] pyrimidine derivatives for the treatment of viral infections and other diseases” (JANSSEN SCIENCES IRELAND UNLIMITED COMPANY, priority 2012, dated 2022).

Columns and labels:
[1] = biological target: T1, human TLR7 (Homo sapiens, UniProt Q9NYK1); test: TLR7 cellular reporter assay (HEK293, NFκB-luc); assay type: cell-based; details: HEK293 cells transfected with CMV-TLR7 and NFκB-luc, 6 hours incubation; lowest effective concentration
T1 construct: expressed in transfected cells; host or cells: HEK293 cells, transient transfection with CMV-TLR7 plasmid and NFκB-luc plasmid
T1 sequence (Q9NYK1 27-1049): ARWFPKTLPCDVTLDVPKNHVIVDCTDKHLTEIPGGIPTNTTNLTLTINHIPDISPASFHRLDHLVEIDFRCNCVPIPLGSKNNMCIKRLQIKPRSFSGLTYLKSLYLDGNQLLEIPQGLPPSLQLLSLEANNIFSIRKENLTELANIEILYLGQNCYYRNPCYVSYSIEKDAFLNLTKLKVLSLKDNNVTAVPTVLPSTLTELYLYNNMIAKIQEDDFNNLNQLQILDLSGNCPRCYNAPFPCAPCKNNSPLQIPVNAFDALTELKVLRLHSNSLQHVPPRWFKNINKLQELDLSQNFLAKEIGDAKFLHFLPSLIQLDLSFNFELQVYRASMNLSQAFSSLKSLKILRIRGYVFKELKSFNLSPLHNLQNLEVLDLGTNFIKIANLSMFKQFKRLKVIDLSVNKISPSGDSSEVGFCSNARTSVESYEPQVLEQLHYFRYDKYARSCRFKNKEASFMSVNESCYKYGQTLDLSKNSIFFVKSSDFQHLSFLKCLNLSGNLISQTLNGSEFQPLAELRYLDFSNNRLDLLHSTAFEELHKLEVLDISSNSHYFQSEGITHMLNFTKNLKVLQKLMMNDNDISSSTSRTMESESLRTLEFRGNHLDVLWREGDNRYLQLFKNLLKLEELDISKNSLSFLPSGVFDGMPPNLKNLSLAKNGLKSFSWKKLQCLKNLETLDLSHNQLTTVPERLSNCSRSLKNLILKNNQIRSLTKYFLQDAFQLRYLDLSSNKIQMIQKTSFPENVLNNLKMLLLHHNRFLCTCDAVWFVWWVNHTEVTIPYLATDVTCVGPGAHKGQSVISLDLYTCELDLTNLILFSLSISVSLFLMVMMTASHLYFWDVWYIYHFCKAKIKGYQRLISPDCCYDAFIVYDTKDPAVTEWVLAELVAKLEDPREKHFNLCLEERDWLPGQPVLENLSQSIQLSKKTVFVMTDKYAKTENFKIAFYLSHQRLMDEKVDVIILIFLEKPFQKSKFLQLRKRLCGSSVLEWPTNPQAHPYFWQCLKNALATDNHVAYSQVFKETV
Procedure: (§1) The ability of compounds to activate human TLR7 and/or TLR8 was assessed in a cellular reporter assay using HEK293 cells transiently transfected with a TLR7 or TLR8 expression vector and NFκB-luc reporter construct.
(§2) Briefly, HEK293 cells were grown in culture medium (DMEM supplemented with 10% FCS and 2 mM Glutamine). […] Thirty microliters of cells were then dispensed into each well in 384-well plates, where 10 μL of compound in 4% DMSO was already present. Following 6 hours incubation at 37° C., 5% CO2, the luciferase activity was determined by adding 15 μL of Steady Lite Plus substrate (Perkin Elmer) to each well and readout performed on a ViewLux ultraHTS microplate imager (Perkin Elmer). Dose response curves were generated from measurements performed in quadruplicates.

[2] = biological target: T2, human TLR8 (Homo sapiens, UniProt Q9NR97); test: TLR8 cellular reporter assay (HEK293, NFκB-luc); assay type: cell-based; details: HEK293 cells transfected with CMV-TLR8 and NFκB-luc, 6 hours incubation; lowest effective concentration
T2 construct: expressed in transfected cells; host or cells: HEK293 cells, transient transfection with TLR8 plasmid and NFκB-luc plasmid
T2 sequence (Q9NR97 27-1041): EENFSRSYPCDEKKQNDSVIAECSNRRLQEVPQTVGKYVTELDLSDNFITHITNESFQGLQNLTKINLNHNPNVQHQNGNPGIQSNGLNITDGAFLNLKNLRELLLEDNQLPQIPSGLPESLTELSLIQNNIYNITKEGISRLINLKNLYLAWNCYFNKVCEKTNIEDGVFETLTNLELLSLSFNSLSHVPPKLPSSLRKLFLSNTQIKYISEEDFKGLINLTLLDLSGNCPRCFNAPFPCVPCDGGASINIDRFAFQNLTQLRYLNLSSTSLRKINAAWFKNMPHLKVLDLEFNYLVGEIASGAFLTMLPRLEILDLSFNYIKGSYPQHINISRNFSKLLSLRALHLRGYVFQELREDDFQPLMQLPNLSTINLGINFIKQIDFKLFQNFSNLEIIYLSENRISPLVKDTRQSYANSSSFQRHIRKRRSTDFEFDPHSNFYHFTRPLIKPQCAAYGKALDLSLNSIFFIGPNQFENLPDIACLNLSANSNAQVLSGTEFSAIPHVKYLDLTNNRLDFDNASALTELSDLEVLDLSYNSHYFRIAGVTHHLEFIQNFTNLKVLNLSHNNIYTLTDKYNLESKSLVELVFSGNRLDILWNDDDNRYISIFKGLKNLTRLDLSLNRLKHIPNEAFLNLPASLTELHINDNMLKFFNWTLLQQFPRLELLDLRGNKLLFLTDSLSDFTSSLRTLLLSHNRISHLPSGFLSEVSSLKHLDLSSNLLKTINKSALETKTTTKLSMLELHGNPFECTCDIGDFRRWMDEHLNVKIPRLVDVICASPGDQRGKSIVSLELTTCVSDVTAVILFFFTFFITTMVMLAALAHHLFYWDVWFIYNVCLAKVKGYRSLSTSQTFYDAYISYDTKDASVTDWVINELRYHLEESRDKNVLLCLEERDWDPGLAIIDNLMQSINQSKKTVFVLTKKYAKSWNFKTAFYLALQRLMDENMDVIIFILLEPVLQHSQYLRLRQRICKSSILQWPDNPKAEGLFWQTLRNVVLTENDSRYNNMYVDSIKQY
Procedure: as §1, §2

[3] = system: interferon-stimulated responsive elements (ISRE); test: Activation of ISRE promoter elements by conditioned media from PBMC (HEK-ISREluc); assay type: cell-based, human; details: conditioned media from PBMC transferred to HEK-ISREluc cells, 24 hours, lowest effective concentration; for minimal effective concentration: Homo sapiens, read-out: PBMC LEC
Procedure: The potential of compounds to induce IFN-I was also evaluated by measuring the activation of interferon-stimulated responsive elements (ISRE) by conditioned media from PBMC. The ISRE element of sequence […] (SEQ. ID NO:1) is highly responsive to the STAT1-STAT2-IRF 9 transcription factor, activated upon binding of IFN-I to their receptor IFNAR (Clontech, PT3372-5W). […] A HEK293 cell line stably transfected with pISRE-Luc (HEK-ISREluc) was established to profile of the conditioned PBMC cell culture media.
Briefly, PBMCs were prepared from buffy coats of at least two donors using a standard Ficoll centrifugation protocol. Isolated PBMCs were resuspended in RPMI medium supplemented with 10% human AB serum and 2×10^5 cells/well were dispensed into 384-well plates containing compounds (70 μL total volume). After overnight incubation, 10 μL of supernatant was transferred to 384-well plates containing 5×10^3 HEK-ISREluc cells/well in 30 μL (plated the day before). Following 24 hours of incubation, activation of the ISRE elements was measured by assaying luciferase activity using 40 μL/well Steady Lite Plus substrate (Perkin Elmer) and measured with ViewLux ultraHTS microplate imager (Perkin Elmer). The stimulating activity of each compound on the HEK-ISREluc cells was reported as LEC value, defined as the compound concentration applied to the PBMCs resulting in a luciferase activity at least two fold above the standard deviation of the assay. The LEC in turn indicates the degree of ISRE activation on transfer of a defined amount of PBMC culture medium. Recombinant interferon α-2a (Roferon-A) was used as a standard control compound.

Compound | TLR7 LEC [1] | TLR8 LEC [2] | minimal effective concentration [3] | PBMC LEC [3]
CCC[C@@H](CCO)Nc1nc(N)nc2ccn(Cc3ccncc3)c12 [Compound 39] | 0.17 µM | >25 µM | 0.009 µM | 
CCCC[C@@H](CCO)Nc1nc(N)nc2ccn(Cc3ccncc3)c12 [Compound 40] | 0.12 µM | 24.61 µM | 0.004 µM | 
CCCCNc1nc(N)nc2ccn(Cc3ccc(OC)cc3)c12 [Compound 41] | 0.09 µM | >25 µM | 0.11 µM | 
CCCCNc1nc(N)nc2ccn(Cc3ccc(F)cc3)c12 [Compound 42] | 0.28 µM | >25 µM | 0.16 µM | 
CCCCNc1nc(N)nc2ccn(Cc3ccccc3F)c12 [Compound 43] | 0.11 µM | >25 µM | 0.17 µM | 
CC(CNc1nc(N)nc2ccn(Cc3ccccc3)c12)C1CC1 (stereo not drawn) [Compound 44] | 1.51 µM | >25 µM | 2.45 µM | 
Nc1nc(NCc2ccoc2)c2c(ccn2Cc2ccccc2)n1 [Compound 45] | 19.9 µM | >25 µM | 0.74 µM | 
CC1CC1CNc1nc(N)nc2ccn(Cc3ccccc3)c12 (stereo not drawn) [Compound 46] | 0.83 µM | >25 µM | 0.17 µM | 
CC(C)=CCNc1nc(N)nc2ccn(Cc3ccccc3)c12 [Compound 47] | 17.5 µM | >25 µM | 1.79 µM | 
Cc1cc(CNc2nc(N)nc3ccn(Cc4ccccc4)c23)no1 [Compound 48] | 0.05 µM | >25 µM | 0.03 µM | 
Cn1ccc(CNc2nc(N)nc3ccn(Cc4ccccc4)c23)n1 [Compound 49] | 22.43 µM | >25 µM | 2.34 µM | 
CCCCNc1nc(N)nc2ccn(Cc3cc4ccccc4cn3)c12 [Compound 50] | 1.01 µM | >25 µM | 0.13 µM | 
CC(C)CCNc1nc(N)nc2ccn(Cc3ccccc3)c12 [Compound 51] | 5.14 µM | >25 µM | 0.59 µM | 
CCCCNc1nc(N)nc2ccn(CC3CCCCC3)c12 [Compound 52] | 0.12 µM | >25 µM | 0.09 µM | 
CCCCNc1nc(N)nc2ccn(CC3CC3)c12 [Compound 53] | 0.38 µM | >25 µM | 0.07 µM | 
CCCCNc1nc(N)nc2c(C)cn(Cc3ccccc3)c12 [Compound 54] | 1.68 µM | >25 µM | 0.9 µM | 
CCCCNc1nc(N)nc2ccn(Cc3ncccn3)c12 [Compound 56] | 0.99 µM | 17.5 µM | 0.07 µM | 
CCCCNc1nc(N)nc2c(C)cn(Cc3ccccc3)c12 [Compound 58] | 0.24 µM | >25 µM |  | 0.90 µM
Nc1nc(NCc2nccs2)c2c(ccn2Cc2ccccc2)n1 [Compound 60] | 0.39 µM | >25 µM | 0.33 µM | 
Nc1nc(NCc2ccccn2)c2c(ccn2Cc2ccccc2)n1 [Compound 61] | 1.01 µM | >25 µM | 1.95 µM | 
CCCCNc1nc(N)nc2ccn(CC3CCC3)c12 [Compound 62] | 0.06 µM | 0.9934 µM | 0.06 µM | 
CCCCNc1nc(N)nc2cc(C)n(Cc3ccccc3)c12 [Compound 63] | 0.67 µM | >25 µM | 0.18 µM | 
CCCCNc1nc(N)nc2ccn(Cc3nccc4ccccc34)c12 [Compound 65] | 0.1687 µM | >25 µM | 0.08 µM | 
CCCCNc1nc(N)nc2ccn(CCn3cccc3)c12 [Compound 66] | 2.57 µM | 3.96 µM | 0.91 µM | 
CCCCNc1nc(N)nc2ccn(CCN3CCOCC3)c12 [Compound 67] | 0.056 µM | 6.71 µM | 0.04 µM | 
CCCCNc1nc(N)nc2ccn(Cc3ccccc3OC)c12 [Compound 69] | 0.004 µM | 0.71 µM | 0.002 µM | 
CCCCNc1nc(N)nc2ccn(CC3CCCO3)c12 (stereo not drawn) [Compound 71] | 0.32 µM | 4.68 µM | 0.24 µM | 
CCCCNc1nc(N)nc2ccn(Cc3cccs3)c12 [Compound 73] | 0.28 µM | >25 µM | 0.13 µM | 
